A value given as a limit tells only on which side of the number the result lay.

Experiment [1] has as its system Gerbil, jird. The experiment is described as follows: Inhibition of GR-73632-induced foot tapping in iv dosed gerbil. It is filed as functional. Particulars: Meriones, read-out: ID50 (the source's name).
Experiment [2] concerns the target Substance-P receptor (Homo sapiens, UniProt P25103). Kind of experiment: Displacement of [125I]-labeled substance P from human cloned NK1 receptor expressed in CHO cells. It is filed as cell-based. (In general: In a radioligand displacement assay an active substance lowers the binding of a labelled ligand.)
Experiment [3] addresses Voltage-gated inwardly rectifying potassium channel KCNH2 (Homo sapiens, UniProt Q12809). The experiment is described as follows: Displacement of [35S]-labeled MK499 from cloned hERG expressed in HEK cells. It is filed as cell-based, HEK293.
Experiment [4] deals with Gerbil, jird. The experiment is described as follows: Inhibition of GR-73632-induced foot tapping in iv dosed gerbils after 24 hrs. Format: functional. The conditions noted are these: Meriones, read-out: ID50 (the source's name).
In experiment [5] the test system is Gerbil, jird. Kind of experiment: Inhibition of GR-73632 induced foot tapping in gerbils at 3 mg/kg, iv after 24 hrs. It is filed as functional. Particulars: Meriones.
The subject of experiment [6] is Gerbil, jird. Kind of experiment: Inhibition of GR-73632-induced foot tapping in gerbils at 3 mg/kg, iv. It is filed as functional. Particulars: Meriones.

Substance-P receptor, sequence (P25103 whole entry): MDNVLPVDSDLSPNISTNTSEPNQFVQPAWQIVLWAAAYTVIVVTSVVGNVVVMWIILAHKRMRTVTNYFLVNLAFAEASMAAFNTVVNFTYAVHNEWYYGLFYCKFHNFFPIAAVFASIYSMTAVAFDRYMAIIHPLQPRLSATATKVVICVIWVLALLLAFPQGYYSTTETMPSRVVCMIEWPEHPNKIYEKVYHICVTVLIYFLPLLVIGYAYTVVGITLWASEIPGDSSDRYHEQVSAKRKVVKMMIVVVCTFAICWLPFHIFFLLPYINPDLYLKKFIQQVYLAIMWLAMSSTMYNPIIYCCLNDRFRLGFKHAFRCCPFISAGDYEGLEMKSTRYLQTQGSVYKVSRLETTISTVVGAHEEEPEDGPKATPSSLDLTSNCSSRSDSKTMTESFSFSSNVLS
Voltage-gated inwardly rectifying potassium channel KCNH2, sequence (Q12809 whole entry): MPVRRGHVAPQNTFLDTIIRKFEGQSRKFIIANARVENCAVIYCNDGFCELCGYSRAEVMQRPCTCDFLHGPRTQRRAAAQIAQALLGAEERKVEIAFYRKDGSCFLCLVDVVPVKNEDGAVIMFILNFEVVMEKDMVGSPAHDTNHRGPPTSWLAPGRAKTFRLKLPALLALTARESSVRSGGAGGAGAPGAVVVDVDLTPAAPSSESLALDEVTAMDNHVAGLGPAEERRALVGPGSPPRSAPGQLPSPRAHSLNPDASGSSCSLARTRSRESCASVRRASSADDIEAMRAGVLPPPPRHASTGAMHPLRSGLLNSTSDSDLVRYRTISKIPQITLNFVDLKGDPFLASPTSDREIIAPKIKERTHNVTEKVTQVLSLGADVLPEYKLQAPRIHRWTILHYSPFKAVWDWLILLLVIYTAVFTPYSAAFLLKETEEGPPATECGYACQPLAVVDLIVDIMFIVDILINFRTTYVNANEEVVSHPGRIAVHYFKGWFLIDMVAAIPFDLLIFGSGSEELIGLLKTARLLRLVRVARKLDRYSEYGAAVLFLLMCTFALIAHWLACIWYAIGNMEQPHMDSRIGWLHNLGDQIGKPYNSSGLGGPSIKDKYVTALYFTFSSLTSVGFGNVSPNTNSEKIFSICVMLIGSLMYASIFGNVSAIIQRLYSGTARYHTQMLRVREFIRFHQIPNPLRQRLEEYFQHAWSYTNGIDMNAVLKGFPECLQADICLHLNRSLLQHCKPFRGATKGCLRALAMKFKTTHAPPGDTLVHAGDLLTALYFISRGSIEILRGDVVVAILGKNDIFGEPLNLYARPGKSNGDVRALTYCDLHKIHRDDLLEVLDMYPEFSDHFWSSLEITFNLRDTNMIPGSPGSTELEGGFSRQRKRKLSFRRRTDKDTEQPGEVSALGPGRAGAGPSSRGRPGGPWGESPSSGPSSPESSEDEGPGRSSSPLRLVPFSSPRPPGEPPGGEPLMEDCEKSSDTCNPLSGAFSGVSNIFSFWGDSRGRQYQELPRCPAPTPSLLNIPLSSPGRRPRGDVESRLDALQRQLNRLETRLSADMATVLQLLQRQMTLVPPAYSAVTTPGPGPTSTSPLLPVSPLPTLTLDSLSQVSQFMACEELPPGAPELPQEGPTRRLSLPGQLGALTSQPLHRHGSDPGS

For `C[C@@H](OC1CCC2NC1(c1ccccc1)CC2c1nnnn1C)c1cc(C(F)(F)F)cc(C(F)(F)F)c1` (stereo partly specified), the ED50 in experiment [1] stood at 0.2 mg/kg; in experiment [4], 0.8 mg/kg. The IC50 in experiment [2] turned out to be 1.2 nM. Also, affinity in experiment [3] was put at a Ki of 2800 nM.

On to `C[C@@H](OC1CCC2CCC1(c1ccccc1)N2)c1cc(C(F)(F)F)cc(C(F)(F)F)c1` (stereo partly specified), for which the IC50 in experiment [2] is 4.2 nM.

On to `C[C@@H](OC1CCC2NC1(c1ccccc1)CC2(F)c1nnn(C)n1)c1cc(C(F)(F)F)cc(C(F)(F)F)c1` (stereo partly specified), for which the IC50 in experiment [2] came to 0.4 nM. The same compound had a Ki in experiment [3] above 5000 nM. Further, in experiment [5], the inhibition in vivo at 3 mg/kg was determined as 23%.

Compound `Cn1nnc(C2(F)CC3(c4ccccc4)NC2CCC3OCc2cc(C(F)(F)F)cc(C(F)(F)F)c2)n1` (stereo unspecified) had an IC50 in experiment [2] of 1.5 nM. This compound returned a Ki in experiment [3] above 10000 nM. Further, in experiment [5], the inhibition in vivo at 3 mg/kg was 11%.

`O=S(=O)(c1ccccc1)C1CC2(c3ccccc3)NC1CCC2OCc1cc(C(F)(F)F)cc(C(F)(F)F)c1` (stereo unspecified) came in with an IC50 in experiment [2] of 2.8 nM. Moreover, the affinity in experiment [3], expressed as Ki, was 1300 nM.

In the case of `FC(F)(F)c1cc(COC2CCC3CCC2(c2ccccc2)N3)cc(C(F)(F)F)c1` (stereo unspecified), the IC50 in experiment [2] is 3 nM. For the same compound, in experiment [3], the Ki is 300 nM.

Turning to `Cn1nnc(C2CC3(c4ccccc4)NC2CCC3OCc2cc(C(F)(F)F)cc(C(F)(F)F)c2)n1` (stereo unspecified), the ED50 was determined as 0.3 mg/kg in experiment [1] and 0.6 mg/kg in experiment [4]. The compound also had an IC50 in experiment [2] of 1 nM. Moreover, the affinity in experiment [3], expressed as Ki, was 100 nM.

For `C[C@@H](OC1CCC2NC1(c1ccccc1)CC2S(=O)(=O)c1ccccc1)c1cc(C(F)(F)F)cc(C(F)(F)F)c1` (stereo partly specified), in experiment [2], the IC50 turned out to be 0.6 nM. In experiment [6], this compound displayed an inhibition in vivo at 3 mg/kg of 39%.

Regarding `C[C@@H](OC1CCC2NC1(c1ccccc1)CC2c1nnn(C)n1)c1cc(C(F)(F)F)cc(C(F)(F)F)c1` (stereo partly specified), the results for the ED50 in experiment [1] and in experiment [4] were 0.4 mg/kg and 1.1 mg/kg, respectively. The compound further had an IC50 in experiment [2] of 0.5 nM. In experiment [3], the affinity, expressed as Ki, was 1800 nM.

In turn, `C[C@H](OC1CCC2CCC1(c1ccccc1)N2)c1cc(C(F)(F)F)cc(C(F)(F)F)c1` (stereo partly specified) gave an IC50 in experiment [2] of 200 nM.

In general, IC50 refers to the concentration at which inhibition is half-maximal. Lower therefore signals greater potency. The Ki is a measure of affinity in units of concentration, obtained from inhibition or displacement. Read a low Ki as tighter binding. Broadly, the inhibition in vivo is the drop in the measured response relative to a control, in per cent. Low readings indicate little suppression, high ones strong suppression.

Values taken from ChEMBL document CHEMBL1146106, “1-Phenyl-8-azabicyclo[3.2.1]octane ethers: a novel series of neurokinin (NK1) antagonists” (Bioorg Med Chem Lett, 2006).
